The results in this text go back to ChEMBL document CHEMBL1201862, “PubChem BioAssay data set” (2004).

Some test systems named below: NCI-H226; BT-549; HCT-15; SK-MEL-28; MDA-MB-435; PC-3; EKVX; SF-539; A549; SF-268; SNB-75; NCI-H460; RXF 393; A498; MDA-N; T47D.
Common to all, as to test: NCI tumour cell line growth inhibition, 48 h

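Exposure lasted 48 hours, with cells grown in 96-well plates and compounds tested at five concentrations. Abbreviation: GI50, concentration required for 50% inhibition of growth.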 Calls of active or inactive are those of the source. No stated cut-off is given here; in the data, active = GI50 up to about 1.1 µM and inactive = higher.

As for `C=CCCC1(O)C(O)C(CO)O[C@H](O[C@@]2(CO)OC(CO)C(O)C2O)C1O` (some centres not stated), the GI50 with NCI-H226 is > 100 µM (inactive); with BT-549, > 100 µM (inactive); with HCT-15, > 100 µM; with SK-MEL-28, > 100 µM (inactive); in the assay with MDA-MB-435, > 100 µM (inactive); in the assay on PC-3 it was > 100 µM (inactive). Besides, the GI50 in the assay on EKVX, in the assay with SF-539, in the assay on A549, with SF-268, in the assay with SNB-75 and with NCI-H460 was > 100 µM (inactive) in each case.

`O=c1c2ccccc2ncn1COCc1ccccc1`: the GI50 in the assay with RXF 393 was > 100 µM (inactive); in the assay on NCI-H226, > 100 µM (inactive); in the assay on HCT-15, > 100 µM; with SK-MEL-28 it was > 100 µM (inactive); in the assay on MDA-MB-435, > 100 µM (inactive); in the assay with EKVX it was > 100 µM (inactive). The GI50 in the assay with SF-539, in the assay with A498 and in the assay with A549 was > 100 µM (inactive) throughout.

`CCOC(=O)c1csc(NC(=O)C(C)N2CCCCC2)n1` (configuration not stated): the GI50 is > 100 µM (inactive) in the assay with RXF 393; > 100 µM in the assay with HCT-15; > 100 µM (inactive) in the assay with SK-MEL-28; > 100 µM (inactive) with MDA-N; > 100 µM (inactive) with T47D; > 100 µM (inactive) in the assay on MDA-MB-435. For the same compound, the GI50 in the assay on PC-3, with EKVX, in the assay on SF-539, in the assay with A498, with A549 and in the assay with SNB-75 was > 100 µM (inactive) throughout. Also, the GI50 in the assay on NCI-H460 was > 100 µM (inactive).

With `O=c1cc(N2CCCC2)[nH]c(=O)n1-c1ccccc1`, the GI50 in the assay on NCI-H226 was > 100 µM (inactive); in the assay with BT-549 it was > 100 µM (inactive); in the assay on HCT-15, > 100 µM; with SK-MEL-28 it was > 100 µM (inactive); in the assay on MDA-MB-435 it was > 100 µM (inactive); in the assay on PC-3, > 100 µM (inactive). Moreover, the GI50 with EKVX is > 100 µM (inactive); with SF-539 it was > 100 µM (inactive); in the assay on A549 it was > 100 µM (inactive); in the assay with SF-268 it was > 10 µM (inactive); with SNB-75 it was > 100 µM (inactive); in the assay with NCI-H460, > 100 µM (inactive).

On to `O=C1Nc2ccccc2C(=O)/C1=C/NC(=S)NCCc1ccccc1`, for which the GI50 in the assay on NCI-H226 was > 100 µM (inactive); in the assay on BT-549, > 100 µM (inactive); in the assay with HCT-15, > 100 µM; in the assay on SK-MEL-28, > 100 µM (inactive); with MDA-N, > 100 µM (inactive); in the assay on T47D it was > 100 µM (inactive). In addition, the GI50 in the assay on MDA-MB-435 is > 100 µM (inactive); in the assay on PC-3 it was 98.4 µM (inactive); in the assay on EKVX it was > 100 µM (inactive); in the assay with SF-539 it was > 100 µM (inactive); with A549, > 100 µM (inactive); in the assay on SNB-75, > 100 µM (inactive). The GI50 in the assay with NCI-H460 was > 100 µM (inactive).

On to `N#Cc1c(-c2ccc([N+](=O)[O-])cc2)c(C#N)c(=O)n(NS(=O)(=O)c2ccccc2)c1O`, for which the GI50 in the assay on RXF 393 was > 100 µM (inactive); with NCI-H226, > 100 µM (inactive); in the assay with BT-549 it was > 100 µM (inactive); with HCT-15, > 100 µM; in the assay with SK-MEL-28 it was > 100 µM (inactive); in the assay with MDA-N, > 100 µM (inactive). Further, the GI50 with MDA-MB-435, with PC-3, in the assay on EKVX, in the assay with SF-539, in the assay with A498 and in the assay on A549 was > 100 µM (inactive) throughout. For the same compound, in the assay with NCI-H460, the GI50 is > 100 µM (inactive).
